From patent publication US7098216B2, “Thiazolopyrimidines useful as TNFα inhibitors” (The Regents of the University of California, priority 1999, dated 2006)
Read-outs that look alike come from different tables or passages of the source.

What was measured:
[1] = tested on: TNFα production in human monocytes; experiment: Inhibition of LPS-induced TNFα production in human monocytes (ELISA); type: cell-based; conditions: Monocyte
Protocol: (§1) Peripheral blood mononuclear cells were isolated from normal human blood on Hypaque-Ficoll density gradients. 100 μl aliquots of monocytes were placed onto 96 well microtiter plates at a density of […] in RPMI-1640 medium containing 10% autologous plasma. After incubation for 24 hrs., various concentrations of the test compound in DMSO were added to the plated cells in a volume of 100 μl and incubated for 1 hr. After incubation, […] of LPS was added to each well.
(§2) Eighteen hours after exposure of the plated cells to LPS, 100 μl of medium was collected from each well and assayed (by ELISA, R&D Systems) for release of IL-1 and TNFα, using recombinant human TNF as a standard (n=5). The sensitivity of the assay ranged from 10–100 pg/ml.

[2] = tested on: IL-1β production by human monocytes; experiment: Inhibition of LPS-induced IL-1β production in human monocytes (ELISA); type: cell-based; conditions: Monocyte; human monocytes stimulated with LPS (FIG. 2); read-out: 50% inhibitory dose, IL-1 production
Protocol: as §1, §2
FIG. 2 summarizes the effects of 8b and 8a on the production of IL-1β by human monocytes stimulated with LPS, under the same conditions used for the TNFα study.

[3] = tested on: Jurkat cell line; experiment: Jurkat cell growth, MTT assay; type: cell-based, human; conditions: concentration below 50 μM, 72 h, MTT (FIG. 3)
Protocol: In this experiment, cells of the continuous human lymphoblastoid Jurkat cell line were suspended at 1×10^5/ml in complete medium containing various amounts of 8a and 8b dissolved in DMSO. Seventy-two hours later the cell density was assessed using the MTT assay, which measures the reduction of a tetrazolium dye. The cell densities were compared to control cultures lacking any additional drugs.

[4] = Acute toxicity testing in ICR mice, IP; type: in vivo; conditions: five daily IP injections at 100 mg/kg, 30 days of observation
Protocol: ICR mice (ca. 20 g) were injected IP for 5 days with 50 mg/kg, and 100 mg/kg of each of 8a and 8b dispersed in aqueous hydroxypropyl β-cyclodextrin (50% w/v).

[5] = tested on: TNFα plasma concentration; experiment: Oral 8a dose response on LPS-induced plasma TNFα in mice; type: in vivo, ICR mice
Protocol: ICR mice were dosed orally at 25, 50 and 100 mg/kg of 8a in cyclodextrin, prepared as in Example 7. After 1 hr., each mouse was injected with E. coli LPS (1 μg/mouse). Two hours later, 250 μl samples of blood were obtained by retro-orbital bleeding without anesthetization. The blood was heparinized, centrifuged for 10 min. at 10 K rpm (4° C.) and TNFα determined by ELISA. […] The two bars at the top of the figure show the baseline levels of TNFα in the mouse plasma, which were undetectable, and the effects of 8a administered alone, which were negligible.

[6] = tested on: TNFα in the plasma; experiment: Time course of TNFα inhibition after oral 8a in LPS-injected mice; type: in vivo, ICR mice; conditions: 100 mg/kg by gavage, LPS 24 hours later (FIG. 6)
Protocol: The purpose of these experiments was to determine how long after administration of compound 8a by gavage could its inhibitory effects on LPS-induced TNFα production be detected. Accordingly, all the ICR in this instance were given 8a at a dosage of 100 mg/kg by gavage. Then at 1, 4, 10, and 24 hours later, each animal received 1 μg/ml IP LPS, and two hours later (i.e., at 3, 6, 12, and 26 hours), blood was removed for TNFα ELISA.

[7] = tested on: adjuvant arthritis; experiment: Adjuvant arthritis in Lewis rats; type: in vivo; conditions: 100 mg/kg by gavage daily
Protocol: Since TNFα antagonists have shown considerable value in the treatment of rheumatoid arthritis, compound 8a was evaluated in an animal model that is TNFα dependent. Adjuvant arthritis is an acute inflammatory disease induced in certain rat strains by the administration of heat-killed mycobacteria dispersed in […]. The disease is manifest by severe joint swelling, mainly of the ankles and feet.
Two groups of seven Lewis rats each were immunized intradermally with 5 mg of heat-killed mycobacterium tuberculosis emulsified in incomplete Freund's adjuvant. One day later, one group of animals (N=7) received 100 mg/kg of 8a by gavage. Another group of animals received no treatment. The oral dosing was continued every day up to day 30. […] The mean arthritis score can vary from 0 to 4 for each limb, yielding a maximum score of 16. Note that the untreated animals (group 1) achieved a mean arthritis score of 10 on day 18. In contrast, the treated animals reach a mean arthritis score of 5, for 50% inhibition.

[8] = human monocytes, LPS, 18 h, ELISA (FIG. 1), read-out: IC50, TNFα production

SMILES	IC50 [1, 8] [nM]	IC50 ([1]; Homo sapiens, 18 h, read-out: IC50, TNFα production) [nM]	IC50 ([1]; Homo sapiens, read-out: TNF inhib. (IC50)) [nM]	IC50 [2] [nM]	growth inhibitory activity on Jurkat cells [3]	weight change or lethargy [4]	effect on TNFα plasma concentration ([5]; 25 mg/kg oral, LPS 1 h later, blood 2 h after LPS (FIG. 5))	effect on TNFα plasma concentration ([5]; 50 mg/kg oral, compared with 25 mg/kg (FIG. 5))	effect of 8a administered alone on plasma TNFα ([5]; without LPS (FIG. 5))	accumulation of TNFα in plasma of LPS-injected mice [6]	mean arthritis score ([7]; maximum score 16, untreated 10 on day 18 (FIG. 7))	inhibition at 100 mg/kg ([7]; Rattus norvegicus, po, versus untreated, read-out: inhibition of arthritis score) [%]
COc1ccc(C2CNC(=O)C2)cc1OC1CCCC1 (stereo not shown) [rolipram, reference compound]	2500											
Fc1ccc(-c2ncn(CCCN3CCOCC3)c2-c2ccncc2)cc1 [SB-210313, reference compound]	1150											
CCOC(=O)CCCn1c(=O)c2sc(N)nc2n(C)c1=O [8a, Ethyl 4-[2-Amino-4-methyl-5,7-dioxothiazolo [4,5-d]pyrimidin-6-yl]-butanoate]		676	676	1000 to 3000	neither 8b nor 8a had significant growth inhibitory activity	no weight change or detectable lethargy	significant inhibitory effect	greater	negligible	completely inhibited	5	50
